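All cell lines were grown in 96-well plates and treated with compound for 48 hours. At the GI50, growth is halved.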 Calls of active or inactive are those of the source. Rule as the data show it: active = GI50 up to about 1.1 µM and inactive = higher.
Experiments:
Assay in all cases: NCI tumour cell line growth inhibition, 48 h
SK-MEL-2 = tested on: SK-MEL-2
SK-MEL-28 = tested on: SK-MEL-28
OVCAR-4 = tested on: OVCAR-4
NCI-H23 = tested on: NCI-H23
M14 = tested on: M14
LOX IMVI = tested on: LOX IMVI
CCRF-CEM = tested on: CCRF-CEM
KM-20L2 = tested on: KM-20L2
Malme-3M = tested on: Malme-3M
EKVX = tested on: EKVX
K562 = tested on: K562
MOLT-4 = tested on: MOLT-4
SNB-75 = tested on: SNB-75
COLO 205 = tested on: COLO 205
HCT-15 = tested on: HCT-15
OVCAR-3 = tested on: OVCAR-3
OVCAR-8 = tested on: OVCAR-8
SR = tested on: SR
DU-145 = tested on: DU-145
NCI/ADR-RES = tested on: NCI/ADR-RES

Structure (SMILES)	GI50 (SK-MEL-2)	GI50 (SK-MEL-28)	GI50 (OVCAR-4)	GI50 (NCI-H23)	GI50 (M14)	GI50 (LOX IMVI)	GI50 (CCRF-CEM)	GI50 (KM-20L2)	GI50 (Malme-3M)	GI50 (EKVX)	GI50 (K562)	GI50 (MOLT-4)	GI50 (SNB-75)	GI50 (COLO 205)	GI50 (HCT-15)	GI50 (OVCAR-3)	GI50 (OVCAR-8)	GI50 (SR)	GI50 (DU-145)	GI50 (NCI/ADR-RES)
COc1ccc([C@H]2CC3C(=O)N(c4ccc(OC)cc4)C(=O)C3c3[nH]c4ccccc4c32)cc1 (stereo not given in full)	53 µM (inactive)	83.9 µM (inactive)	> 100 µM (inactive)	54 µM (inactive)	66.5 µM (inactive)	> 100 µM (inactive)	48.4 µM (inactive)	69.5 µM (inactive)	36.1 µM (inactive)	> 100 µM (inactive)	> 100 µM (inactive)	32.9 µM (inactive)	16.1 µM (inactive)	97.5 µM (inactive)	57.4 µM	> 100 µM (inactive)	17.1 µM (inactive)	–	–	–
CC12CC/C(=N/NC(N)=O)C3C1CCCC32	> 100 µM (inactive)	> 100 µM (inactive)	> 100 µM (inactive)	> 100 µM (inactive)	> 100 µM (inactive)	> 100 µM (inactive)	> 100 µM (inactive)	> 100 µM (inactive)	> 100 µM (inactive)	–	> 100 µM (inactive)	> 100 µM (inactive)	> 100 µM (inactive)	> 100 µM (inactive)	> 100 µM	> 100 µM (inactive)	> 100 µM (inactive)	> 100 µM (inactive)	–	–
O=C1NC(=S)NC(=O)C1=Cc1ccc2ccccc2n1	> 100 µM (inactive)	> 100 µM (inactive)	> 100 µM (inactive)	> 100 µM (inactive)	> 100 µM (inactive)	> 100 µM (inactive)	> 100 µM (inactive)	> 100 µM (inactive)	> 100 µM (inactive)	> 100 µM (inactive)	> 100 µM (inactive)	> 100 µM (inactive)	> 100 µM (inactive)	> 100 µM (inactive)	> 100 µM	> 100 µM (inactive)	> 100 µM (inactive)	> 100 µM (inactive)	–	–
Cc1ccc2nc(NC(=O)C(=O)C(C#N)c3nc4ccccc4s3)sc2c1 (stereo not given)	32.4 µM (inactive)	51.8 µM (inactive)	39 µM (inactive)	35 µM (inactive)	33.8 µM (inactive)	37.2 µM (inactive)	–	28 µM (inactive)	43.7 µM (inactive)	39 µM (inactive)	29.2 µM (inactive)	20.4 µM (inactive)	40.6 µM (inactive)	18 µM (inactive)	32 µM	23.4 µM (inactive)	30.4 µM (inactive)	–	–	–
COc1ccc(/C=C/C(=O)c2sc(-c3cccnc3)nc2C)cc1	38.4 µM (inactive)	94 µM (inactive)	–	75.5 µM (inactive)	–	25.1 µM (inactive)	28.6 µM (inactive)	56.4 µM (inactive)	62.8 µM (inactive)	> 100 µM (inactive)	21.8 µM (inactive)	16.7 µM (inactive)	30.1 µM (inactive)	48.3 µM (inactive)	45.3 µM	24.2 µM (inactive)	35.7 µM (inactive)	–	–	–
BrC12C3C4C5C(C(C43)C13OCCO3)C52 (stereo not given)	> 100 µM (inactive)	> 100 µM (inactive)	–	> 100 µM (inactive)	–	> 100 µM (inactive)	> 100 µM (inactive)	> 100 µM (inactive)	> 100 µM (inactive)	> 100 µM (inactive)	> 100 µM (inactive)	> 100 µM (inactive)	> 100 µM (inactive)	> 100 µM (inactive)	–	> 100 µM (inactive)	> 100 µM (inactive)	–	–	–
CC1CC2C3CCC4=CC(=O)C=CC4(C)C3(F)C(O)CC2(C)C1(O)C(=O)CO.Cc1nnc(NS(=O)(=O)c2ccc(/N=N/c3cc(/N=N/c4ccc(S(=O)(=O)Nc5nnc(C)s5)cc4)c4c(NC(=O)C(Cl)Cl)cccc4c3OC(=O)C(Cl)Cl)cc2)s1	21.2 µM (inactive)	20.8 µM (inactive)	22.6 µM (inactive)	12.1 µM (inactive)	28.4 µM (inactive)	33.3 µM (inactive)	1.08 µM (active)	31.3 µM (inactive)	26.5 µM (inactive)	34.4 µM (inactive)	22.9 µM (inactive)	5.53 µM (inactive)	37.3 µM (inactive)	12.1 µM (inactive)	35.5 µM	19.2 µM (inactive)	11.6 µM (inactive)	–	–	–
COc1ccc(-c2cc(-c3cc(Cl)cc(Br)c3O)nc(O)n2)cc1	–	19.9 µM (inactive)	5.66 µM (inactive)	14 µM (inactive)	19.2 µM (inactive)	17.3 µM (inactive)	19.8 µM (inactive)	19.1 µM (inactive)	19.4 µM (inactive)	5.87 µM (inactive)	14.1 µM (inactive)	13.2 µM (inactive)	15.4 µM (inactive)	15.6 µM (inactive)	–	17.5 µM (inactive)	16.7 µM (inactive)	18 µM (inactive)	–	–
CC(=O)O[C@@H]1CC(C)C2CC2C2=C(C(O)OC2O)[C@@H]1C(C)CCC=C(C)C (stereo not given in full)	29.9 µM (inactive)	36.7 µM (inactive)	24.4 µM (inactive)	22.2 µM (inactive)	31 µM (inactive)	20.8 µM (inactive)	24.8 µM (inactive)	18.7 µM (inactive)	27.8 µM (inactive)	40 µM (inactive)	23.9 µM (inactive)	24.6 µM (inactive)	26.9 µM (inactive)	18.2 µM (inactive)	22 µM	–	27 µM (inactive)	–	–	–
CC(C)c1ccccc1NC(=O)CCC(=O)NN	> 100 µM (inactive)	> 100 µM (inactive)	–	> 100 µM (inactive)	> 100 µM (inactive)	> 100 µM (inactive)	> 100 µM (inactive)	> 100 µM (inactive)	> 100 µM (inactive)	> 100 µM (inactive)	> 100 µM (inactive)	> 100 µM (inactive)	> 100 µM (inactive)	–	> 100 µM	> 100 µM (inactive)	–	> 100 µM (inactive)	–	–
CC(C)CCC[C@@H](C)C1CCC2[C@@H]3CC=C4C[C@@H](C(=O)NCC[N+](C)(C)CCCS(=O)(=O)[O-])CC[C@]4(C)C3CC[C@@]21C (stereo not given in full)	18.2 µM (inactive)	19.8 µM (inactive)	20.3 µM (inactive)	–	17.2 µM (inactive)	11.7 µM (inactive)	16.2 µM (inactive)	16.4 µM (inactive)	18.9 µM (inactive)	16.9 µM (inactive)	14.2 µM (inactive)	18.2 µM (inactive)	20.2 µM (inactive)	17.5 µM (inactive)	16.3 µM	16.4 µM (inactive)	18.8 µM (inactive)	–	–	–
CC1(C)Oc2ccccc2N2O[C@@H]3C(=O)N(c4ccccc4)C(=O)[C@@H]3C21c1ccccc1 (stereo not given in full)	23.1 µM (inactive)	29.2 µM (inactive)	17.9 µM (inactive)	97.7 µM (inactive)	20.7 µM (inactive)	–	27.7 µM (inactive)	51.4 µM (inactive)	21.8 µM (inactive)	56.1 µM (inactive)	37.4 µM (inactive)	27.1 µM (inactive)	17.7 µM (inactive)	39.1 µM (inactive)	–	21.2 µM (inactive)	> 10 µM (inactive)	–	–	–
NCCSc1cc(O)c2c(c1N)C(=O)c1ccccc1C2=O	65.6 µM (inactive)	> 100 µM (inactive)	99.3 µM (inactive)	> 100 µM (inactive)	74.3 µM (inactive)	–	16.8 µM (inactive)	5.51 µM (inactive)	26 µM (inactive)	> 100 µM (inactive)	22.2 µM (inactive)	20.9 µM (inactive)	67.6 µM (inactive)	–	29.3 µM	43 µM (inactive)	27.9 µM (inactive)	20.8 µM (inactive)	–	–
CO/N=C1/C(n2[nH]c(=O)n(-c3ccccc3)c2=O)C2C=CC1n1c(=O)n(-c3ccccc3)c(=O)n12 (stereo not given)	> 100 µM (inactive)	> 100 µM (inactive)	> 100 µM (inactive)	> 100 µM (inactive)	> 100 µM (inactive)	> 100 µM (inactive)	> 100 µM (inactive)	–	> 100 µM (inactive)	> 100 µM (inactive)	> 100 µM (inactive)	> 100 µM (inactive)	> 100 µM (inactive)	> 100 µM (inactive)	> 100 µM	> 100 µM (inactive)	> 100 µM (inactive)	> 100 µM (inactive)	> 100 µM (inactive)	> 100 µM (inactive)
CCN(CC)C(=S)N/N=C1\C(=O)Nc2ccccc21	2.65 µM (inactive)	> 100 µM (inactive)	0.771 µM (active)	2.9 µM (inactive)	0.586 µM (active)	0.495 µM (active)	0.347 µM (active)	–	0.298 µM (active)	1.36 µM (inactive)	0.562 µM (active)	0.653 µM (active)	1.31 µM (inactive)	0.659 µM (active)	0.413 µM	0.192 µM (active)	0.813 µM (active)	0.968 µM (active)	> 100 µM (inactive)	0.152 µM (active)
NC1CC(Cl)c2c(Cl)sc(Cl)c21 (stereo not given)	> 100 µM (inactive)	> 100 µM (inactive)	> 100 µM (inactive)	> 100 µM (inactive)	> 100 µM (inactive)	> 100 µM (inactive)	34 µM (inactive)	–	> 100 µM (inactive)	> 100 µM (inactive)	> 100 µM (inactive)	> 100 µM (inactive)	> 100 µM (inactive)	> 100 µM (inactive)	> 100 µM	> 100 µM (inactive)	> 100 µM (inactive)	61.8 µM (inactive)	> 100 µM (inactive)	> 100 µM (inactive)
